# Target: T1, GluN2A-ZnT1 interactions (Rattus norvegicus, UniProt Q62720)
# T1 construct: endogenous in cells; host or cells: rat embryonic (E16) cortical cultures, 3-4 weeks in vitro
# T1 sequence (Q62720 1-507): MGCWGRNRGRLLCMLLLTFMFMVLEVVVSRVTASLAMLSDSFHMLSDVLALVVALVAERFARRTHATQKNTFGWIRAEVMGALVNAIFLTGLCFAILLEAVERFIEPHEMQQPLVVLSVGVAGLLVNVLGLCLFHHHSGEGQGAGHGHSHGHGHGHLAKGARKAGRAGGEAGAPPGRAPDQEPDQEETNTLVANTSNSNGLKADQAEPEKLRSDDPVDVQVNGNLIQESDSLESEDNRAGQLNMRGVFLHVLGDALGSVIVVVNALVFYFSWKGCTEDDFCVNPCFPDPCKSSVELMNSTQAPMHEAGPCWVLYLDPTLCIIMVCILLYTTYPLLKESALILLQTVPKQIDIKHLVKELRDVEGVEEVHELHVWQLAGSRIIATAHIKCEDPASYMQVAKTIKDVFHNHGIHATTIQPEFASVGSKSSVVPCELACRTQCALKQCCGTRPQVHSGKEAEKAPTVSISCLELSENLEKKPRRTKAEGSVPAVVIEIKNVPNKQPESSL
# Assay: Proximity ligation assay (PLA) between GluN2A and ZnT1 in cortical cultures
# Assay type: cell-based
# Conditions: 3 μM overnight, cortical cultures 21-25 DIV, compared to scramble controls in sister cultures
# Protocol: FIGS. 3A-3B: N2AZ disrupts ZnT1 binding to the GluN2A subunit of NMDAR. (FIG. 3A) Representative images of rat cortical cultures following proximity ligation assay (PLA) between GluN2A and ZnT1. The PLA immunofluorescently labeled sites of interaction between GluN2A and ZnT1 (white punctae). Additionally, Map2 is immunofluorescently labeled to visualize neuron morphology. Scale bar: 20 μm. Top row denotes PLA assay following overnight exposure to 3 μM scN2AZ, while bottom row denotes PLA assay following 3 μM N2AZ treatment. Insets show the localization of PLA punctae along a Map2 stained dendrite. […] Filled circles indicate the quantification of representative images in FIG. 3A. Error bars indicate mean±SEM. […]
# Proximity ligation assays were performed using Duolink PLA kit. […] PLA puncta were counted automatically using Fiji ImageJ (Version 2.0) software using maximum intensity projection of 8 sequential images in the z plane. All images were normalized to the same intensity threshold using the Yen threshold setting prior to automated quantification of punctae.
# Next, rat neuronal cortical cultures were utilized to determine whether N2AZ treatment was sufficient to disrupt GluN2A-ZnT1 binding in vitro. First, however, ZnT1 expression in cortical cultures was verified using quantitative PCR. […] Next, GluN2A-ZnT1 interactions in the cultures were quantified using a proximity ligation assay (PLA). […]
sequence,measurement,value
NDSYLRSSL [Peptide N2AZ],amount of PLA puncta,significantly reduced
